According to paper PMC4727972, “Chronic unpredicted mild stress-induced depression alter saxagliptin pharmacokinetics and CYP450 activity in GK rats” (PeerJ, 2016):
Like-named read-outs stand apart in the source and are kept apart here.

Key:
[1] = Pharmacokinetics of Sax in plasma after oral 0.5 mg/kg (HPLC-MS/MS, noncompartmental analysis); format: in vivo, GK rats; conditions: for AUC(0-inf) / Cmax / Tmax / MRT last / half-life / Vd/F: plasma, po; for AUC(0-inf) / Cmax / Tmax / MRT last / half-life / Vd/F / CLz/F: n = 9, mean ± SD; for MRT last: read-out: MRT0−t; for half-life: read-out: T1/2z (converted); for Vd/F: read-out: Vz/F
Description: All rats were fasted overnight but with free access to water. 0.5 mg/kg Sax (suspended in 5 g/L Carboxymethyl cellulose-Na) was given orally. Blood samples were collected by eye canthus at 0.17, 0.33, 0.5, 0.83, 1.17, 1.5, 2, 3, 5, 8 h. Then plasma samples were centrifuged to obtain plasma at 3,000 × g for 5 min. The samples were stored at −80 °C for analysis.
The Sax concentration was assayed by the HPLC-tandem mass spectrometry (MS/MS) method ([Gao et al., 2012]). A total of 100 µL plasma sample and 10 µL Sit (100 ng/mL) was added with 1.2 mL ethyl acetate in a centrifuge tube, vortex-mixed for 2 min and centrifuged at 10,000 × g for 3 min. The supernatant was evaporated to dry. The residue was re-dissolved with 100 µL methanol via vortex-mixed for 1 min and centrifuged at 16,000 × g for 1 min. 2.0 µL of the supernatant was injected into the HPLC-MS/MS system for analysis.
The HPLC equipped with a reverse-phase column was connected to a triple quadrupole tandem MS with an electrospray interface. The system consists of the LC system (Agilent 1260, Agilent, US) with a G1322A degasser, a G1318B auto-modifiable pump, a G1367E auto-sampler, a G1316A adjustable column temperature box, and the Agilent 6420 MS system. Chromatographic separation was achieved using a ZORBAX EP-C18 column (2.1 mm × 50 mm, 1.8 µm, Agilent). The mobile phase contained 35% methanol and 65% water (0.1% ammonium formate) with a flow rate 0.4 mL/min. The optimized conditions of MS were as follows: positive electrospray ionization (ESI^+) mode, capillary at 4,000 V, ion-spray gas temperature at 350 °C, gas flow rate at 11 L/min, and nebulizer at 15 psi. The parameters of Sax and Sit were as follows: fragmentary voltage at 110 V and 130 V, collision energy at 22 units and 18 units, respectively. The multiple-reaction monitoring mode was selected for quantifying of Sax and Sit, for which the precursor-to-product ion transitions were 316.1 → 179.9 and 407.9 → 234.9, respectively. The MassHunter Workstation software (Version B.06.00, Agilent) was used to collect and process data.
Statistical analysis and pharmacokinetics parameter analysis were performed with SPSS 16.0 (SPSS Inc., Chicago, IL, USA) and DAS 2.1 software (Drug and Statistics, Shanghai University of Traditional Chinese Medicine, Shanghai, China). Differences between the two groups were analyzed via independent-samples t Test. Data was expressed as mean ± standard deviation (SD). p < 0.05 was considered statistically significant.

[2] = set-up: method as in Fura et al., 2009; conditions: rats; ref Fura et al., 2009; cited from earlier work
[3] = tested on: liver microsomal enzyme; experiment: Metabolism of Sax using liver microsomal enzyme in vitro; format: in vitro ADME, GK rats; conditions: decreased from 0.50 mg/mL
Description: The control and CUMS-induced rats were fasted for 12 h and killed by cervical dislocation before removal of the liver. The liver was excised, rinsed with ice-cold normal saline (0.9% NaCl, w/v), weighed for 1 g, and homogenized with 4.0 mL in a 0.05M Tris–HCl buffer (pH 7.4). The homogenate was centrifuged at 10,000 × g at 4 °C for 20 min, and the supernatant was further centrifuged at 105,000 × g at 4 °C for 60 min. The helvus sediment was reconstituted with 1.0 mL Tris–HCl buffer and stored at −80 °C for analysis.
The incubation mixtures (final volume: 500 µL) contained 1 mg/mL microsomal protein, 0.1 M phosphate buffer (PH = 7.4), 1 mM nicotinamide adenine dinucleotide phosphate (NADPH), probe drugs (1 mg/mL Phe, Ven, Nif). A total of 100 µL microsomal protein and 100 µL probe drugs were added with 250 µL phosphate buffer in a brown centrifuge tube, vortex-mixed for 1 min, and incubated at 37 °C water. After 5 min pre-incubation, the reactions were initiated by the addition of 50 µL NADPH. The incubations were performed at 37 °C for 20 min in a water bath and terminated by adding 1.4 mL cold ethyl acetate and 20 µL Lor (5 µg/mL). […]
It is well known that Sax is mainly metabolized by cytochrome 3A enzyme in the liver. […] Considering of the complicacy of metabolic system in vivo, we detected metabolism of Sax using liver microsomal enzyme in vitro with cocktails method. […]

[4] = GK, rat, 0.5 mg/kg, control group (diabetic GK rats), 0.5 mg/kg oral
[5] = GK, rat, 0.5 mg/kg, depression group (CUMS-induced, GK rats), 0.5 mg/kg oral
[6] = depression group vs control group, 0.5 mg/kg oral, p < 0.05

concentration at 5 h ([1]; GK, rat, 0.5 mg/kg, single plasma sample at 5 h after oral Sax (chromatogram, Fig. 3C), group not stated): 0.00305 µg/mL
AUC(0-inf) [1, 4]: 0.0671 ± 0.0141 µg·h/mL
Cmax [1, 4]: 0.0205 ± 0.00461 µg/mL
Tmax [1, 4]: 1.46 ± 0.38 h
MRT last [1, 4]: 2.55 ± 0.32 h
half-life [1, 4]: 1.73 ± 0.43 h
Vd/F [1, 4]: 21 ± 8.22 L
AUC(0-inf) [1, 5]: 0.0446 ± 0.0155 µg·h/mL
Cmax [1, 5]: 0.0149 ± 0.00603 µg/mL
Tmax [1, 5]: 1.04 ± 0.25 h
MRT last [1, 5]: 1.95 ± 0.57 h
half-life [1, 5]: 1.58 ± 0.59 h
Vd/F [1, 5]: 29.8 ± 14.2 L
CLz/F ([1]; control group (diabetic GK rats), 0.5 mg/kg oral): 7.35 ± 1.34 L/h
CLz/F ([1]; depression group (CUMS-induced, GK rats), 0.5 mg/kg oral): 13.05 ± 6.30 L/h
decrease of area under curve (AUC0−∞) in the depression group [1, 6]: 33%
decrease of mean residence time (MRT0−t) in the depression group [1, 6]: 24%
decrease of peak concentration (Cmax) in the depression group [1, 6]: 27%
decrease of peak time (Tmax) in the depression group [1, 6]: 29%
concentration of Sax after incubation with liver microsomal enzyme ([3]; control group microsomes): 350 µg/mL
concentration of Sax after incubation with liver microsomal enzyme ([3]; depression group microsomes): 150 µg/mL
SMILES: N#C[C@@H]1C[C@@H]2C[C@@H]2N1C(=O)[C@@H](N)C12CC3CC(CC(O)(C3)C1)C2 [Sax, (S)-3-hydroxyadamantylglycine-L-cis-4,5-methanoprolinenitrile]
oral bioavailability [2]: good oral bioavailability
